This note sets out measurements from US10308608B2, “Histone deacetylase inhibitors” (BIOMARIN PHARMACEUTICAL INC., priority 2015, dated 2019).

Structures are written as SMILES. Counter-ions that a name gives are not always drawn.

One test has as its system Frataxin (FXN) mRNA. Briefly: Effect of HDAC inhibitors on frataxin (FXN) mRNA expression, qRT-PCR in compound-treated iPSC derived neuronal cells. Type of test: cell-based. To be noted: iPSC, 24 h, compound concentration of 0.625 μM, 24 h incubation, read-out: FXN mRNA fold induction. The protocol: Effect of HDAC Inhibitors on Frataxin (FXN) mRNA Expression
Method: mRNA quantification of compound-treated iPSC derived neuronal cells Neuronal stem cells were cultured in Neurobasal A medium (Life technologies #10888022) supplemented with N2, B27 (Life technologies #17502-048 and #17504-044), L-glutamine (Life technologies #25030081), supplemented with 20 ng/ml EGF (R&D Systems #236-EG) and 20 ng/ml bFGF (BioPioneer # HRP-0011). Neuronal differentiation was initiated by removing growth factors and culturing cells in Neurobasal A with N2 and B27. Cells were allowed to differentiate for 16 days. HDAC inhibitory compound was then added and incubate for 24 h. RNA isolation was performed using the RNeasy Plus mini kit (QIAgen #74134) using a QIAcube instrument per manufacturer's instructions. qRT-PCR was performed using qScript One-Step SYBR Green qRT-PCR Kit (Quanta Biosciences 170-8893BR) with the following conditions: 20 minutes at 50° C., 5 minutes at 95° C., and then 40 cycles of 20 seconds at 95° C., 20 seconds at 55° C., 30 seconds at 72° C. The primer sequences to detect expression of FXN were: 5′-[…]-3′ and 5′-[…]-3′.
The data for the following compounds, for FXN mRNA fold induction at a compound concentration of 0.625 μM are shown in Table 1, where A<1, 1<B<2, 2<C<3, 3<D<5, E>5.
In general terms: Real-time PCR tracks product formation cycle by cycle.
For `Nc1ccccc1NC(=O)c1ccc(N[C@H]2CCN(C3CC3)C2)cc1` [Compound 136, (S)-N-(2-aminophenyl)-4-((1-cyclopropylpyrrolidin-3-yl)amino)benzamide], the fold induction at 0.625 µM fell in the range of 1 to 2. Take `CN1CC[C@H](Oc2ccc(C(=O)Nc3ccccc3N)cc2)C1` [Compound 50, (S)-N-(2-aminophenyl)-4-((1-methylpyrrolidin-3-yl)oxy)benzamide dihydrochloride]: the fold induction at 0.625 µM lay in the range of 2 to 3.

For `Nc1ccccc1NC(=O)c1ccc(NC2CCCNCC2)cc1` (centres unmarked) [Compound 78, N-(2-aminophenyl)-4-(azepan-4-ylamino)benzamide tris(2,2,2-trifluoroacetate)], the fold induction at 0.625 µM is 2 to 3.

As for `Nc1ccccc1NC(=O)c1ccc(O[C@H]2CCNC2)cc1` [Compound 49, (S)-N-(2-aminophenyl)-4-(pyrrolidin-3-yloxy)benzamide hydrochloride], the fold induction at 0.625 µM was 2 to 3. As for `CC(C)(O)CN1CCC(Nc2ccc(C(=O)Nc3ccccc3N)cc2)CC1` [Compound 4, N-(2-aminophenyl)-4-((1-(2-hydroxy-2-methylpropyl)piperidin-4-yl)amino)benzamide], the fold induction at 0.625 µM was in the range of 1 to 2. On to `Nc1ccccc1NC(=O)c1ccc(NC2CCNCC2)cc1` [Compound 110, dihydrochloride], for which the fold induction at 0.625 µM is 2 to 3.

Take `Nc1ccccc1NC(=O)c1ccc(OC2CCN(CC34CC5CC(CC(C5)C3)C4)CC2)cc1` [Compound 133, 4-((1-(((3r,5r,7r)-adamantan-1-yl)methyl)pipendin-4-yl)oxy)-N-(2-aminophenyl)benzamide dihydrochloride]: the fold induction at 0.625 µM was in the range of 2 to 3.

`CC(C)(C)CN1CC[C@H](Oc2ccc(C(=O)Nc3ccccc3N)cc2)C1` [Compound 53, (S)-N-(2-aminophenyl)-4-((1-neopentylpyrrolidin-3-yl)oxy)benzamide]: the fold induction at 0.625 µM was 1 to 2. Consider `Nc1ccccc1NC(=O)c1ccc(OC2CCCN(CC3CCCCC3)CC2)cc1` (centres unmarked) [Compound 40, N-(2-aminophenyl)-4-((1-(cyclohexylmethyl)azepan-4-yl)oxy)benzamide dihydrochloride], for which the fold induction at 0.625 µM was in the range of 3 to 5. As to `Nc1ccccc1NC(=O)c1ccc(N[C@H]2CCN(C3COC3)C2)cc1` [Compound 137, (S)-N-(2-aminophenyl)-4-((1-(oxetan-3-yl)pyrrolidin-3-yl)amino)benzamide], the fold induction at 0.625 µM was in the range of 1 to 2. Turning to `CC1(CN2CCC(Nc3ccc(C(=O)Nc4ccccc4N)cc3)CC2)CC1` [Compound 113, N-(2-aminophenyl)-4-((1-((1-methylcyclopropyl)methyl)piperidin-4-yl)amino)benzamide trihydrochloride], the fold induction at 0.625 µM lay within 2 to 3.

Regarding `CN1CC[C@H](Nc2ccc(C(=O)Nc3ccccc3N)cc2)C1` [Compound 95, (S)-N-(2-aminophenyl)-4-((1-methylpyrrolidin-3-yl)amino)benzamide], the fold induction at 0.625 µM is 1 to 2. On to `CC1(CN2CC(Nc3ccc(C(=O)Nc4ccccc4N)cc3)C2)CC1` [Compound 92, N-(2-aminophenyl)-4-((1-((1-methylcyclopropyl)methyl)azetidin-3-yl)amino)benzamide], for which the fold induction at 0.625 µM lay in the range of 2 to 3.

On to `Nc1ccccc1NC(=O)c1ccc(O[C@@H]2CCCN(CC3CC3)CC2)cc1` [Compound 38B, (R)-N-(2-aminophenyl)-4-((1-(cyclopropylmethyl)azepan-4-yl)oxy)benzamide], for which the fold induction at 0.625 µM is 1 to 2. Take `CC(C)(O)CN1CC[C@H](Oc2ccc(C(=O)Nc3ccccc3N)cc2)C1` [Compound 52, (S)-N-(2-aminophenyl)-4-((1-(2-hydroxy-2-methylpropyl)pyrrolidin-3-yl)oxy)benzamide dihydrochloride]: the fold induction at 0.625 µM lay within 1 to 2. In the case of `Nc1ccccc1NC(=O)c1ccc(OC2CN(C3COC3)C2)cc1` [Compound 126, N-(2-aminophenyl)-4-((1-(oxetan-3-yl)azetidin-3-yl)oxy)benzamide], the fold induction at 0.625 µM is 1 to 2. In the case of `Nc1ccccc1NC(=O)c1ccc(N[C@@H]2CCNC2)cc1` [Compound 102, (R)—N-(2-aminophenyl)-4-(pyrrolidin-3-ylamino)benzamide Trihydrochloride], the fold induction at 0.625 µM lay within 2 to 3. Consider `CC(C)(C)CN1CC[C@@H](Nc2ccc(C(=O)Nc3ccccc3N)cc2)C1` [Compound 106, (R)-N-(2-aminophenyl)-4-((1-neopentylpyrrolidin-3-yl)amino)benzamide], for which the fold induction at 0.625 µM was in the range of 2 to 3. Same read-out and setting: in the case of `Nc1ccccc1NC(=O)c1ccc(NC2CN(CC3CC3)C2)cc1` [Compound 91, N-(2-aminophenyl)-4-((1-(cyclopropylmethyl)azetidin-3-yl)amino)benzamide trihydrochloride] it was 1 to 2; in that of `CC(C)(O)CN1CCC(Sc2ccc(C(=O)Nc3ccccc3N)cc2)CC1` [Compound 375, N-(2-aminophenyl)-4-((1-(2-hydroxy-2-methylpropyl)piperidin-4-yl)thio)benzamide], 1 to 2; in that of `Nc1ccccc1NC(=O)c1ccc(O[C@H]2CCN(C3CC3)C2)cc1` [Compound 127, (S)-N-(2-aminophenyl)-4-((1-cyclopropylpyrrolidin-3-yl)oxy)benzamide dihydrochloride], 1 to 2.

On to `CC(C)(C)CN1CCCC(Oc2ccc(C(=O)Nc3ccccc3N)cc2)CC1` (centres unmarked) [Compound 37, N-(2-aminophenyl)-4-((1-neopentylazepan-4-yl)oxy)benzamide], for which the fold induction at 0.625 µM lay within 2 to 3.

In the case of `Nc1ccccc1NC(=O)c1ccc(OC2CN(C3CC3)C2)cc1` [Compound 125, N-(2-aminophenyl)-4-((1-cyclopropylazetidin-3-yl)oxy)benzamide], the fold induction at 0.625 µM lay within 1 to 2. In the case of `Nc1ccccc1NC(=O)c1ccc(NC2CCN(CC3CCCCC3)CC2)cc1` [Compound 114, N-(2-aminophenyl)-4-((1-(cyclohexylmethyl)piperidin-4-yl)amino)benzamide], the fold induction at 0.625 µM lay in the range of 1 to 2.

As for `Nc1ccccc1NC(=O)c1ccc(O[C@@H]2CCNC2)cc1` [Compound 57, (R)-N-(2-aminophenyl)-4-(pyrrolidin-3-yloxy)benzamide hydrochloride], the fold induction at 0.625 µM lay in the range of 2 to 3. For the compound `CC(C)CN1CC[C@H](Oc2ccc(C(=O)Nc3ccccc3N)cc2)C1` [Compound 51, (S)-N-(2-aminophenyl)-4-((1-isobutylpyrrolidin-3-yl)oxy)benzamide dihydrochloride], the fold induction at 0.625 µM lay in the range of 1 to 2. As for `CC1(CN2CC[C@H](Oc3ccc(C(=O)Nc4ccccc4N)cc3)C2)CC1` [Compound 55, (S)-N-(2-aminophenyl)-4-((1-((1-methylcyclopropyl)methyl)pyrrolidin-3-yl)oxy)benzamide dihydrochloride], the fold induction at 0.625 µM was 2 to 3. As to `CC(C)CN1CCCC(Oc2ccc(C(=O)Nc3ccccc3N)cc2)CC1` (centres unmarked) [Compound 35, N-(2-aminophenyl)-4-((1-isobutylazepan-4-yl)oxy)benzamide dihydrochloride], the fold induction at 0.625 µM is 2 to 3.

The same test, now with this note: iPSC, 24 h, read-out: FXN mRNA fold induction, compound concentration of 0.625 μM, 24 h incubation.
For `CCN(c1ccc(C(=O)Nc2ccccc2N)cc1)C1CCN(CC2CC2)CC1` [Compound 26, N-(2-aminophenyl)-4-((1-(cyclopropylmethyl)piperidin-4-yl)(ethyl)amino)benzamide Trihydrochloride], the fold induction at 0.625 µM fell in the range of 2 to 3. Take `Nc1ccccc1NC(=O)c1ccc(OC2CC3CCC(C2)N3CC2CCCCC2)cc1` (centres unmarked) [Compound 77, N-(2-aminophenyl)-4-((8-(cyclohexylmethyl)-8-azabicyclo[3.2.1]octan-3-yl)oxy)benzamide dihydrochloride]: the fold induction at 0.625 µM is 1 to 2. Consider `CC(C)CN1C2CCC1CC(Nc1ccc(C(=O)Nc3ccccc3N)cc1)C2` (centres unmarked) [Compound 117, N-(2-aminophenyl)-4-((8-isobutyl-8-azabicyclo[3.2.1]octan-3-yl)amino)benzamide], for which the fold induction at 0.625 µM is 2 to 3. For the compound `CN(c1ccc(C(=O)Nc2ccccc2N)cc1)C1CCN(CC2CC2)CC1` [Compound 5, N-(2-aminophenyl)-4-((1-(cyclopropylmethyl)piperidin-4-yl)(methyl)amino)benzamide], the fold induction at 0.625 µM was 2 to 3. On the same count and under the same terms, in the case of `CN(c1ccc(C(=O)Nc2ccccc2N)cc1)C1CCN(CC(C)(C)O)CC1` [Compound 6, N-(2-aminophenyl)-4-((1-(2-hydroxy-2-methylpropyl)piperidin-4-yl)(methyl)amino) benzamide] it was 2 to 3; in that of `Nc1ccccc1NC(=O)c1ccc(NC2CC3CCC(C2)N3CC2CCCCC2)cc1` (centres unmarked) [Compound 122, N-(2-aminophenyl)-4-((8-(cyclohexylmethyl)-8-azabicyclo[3.2.1]octan-3-yl)amino)benzamide], 2 to 3. On the same count and under the same terms, next, `Nc1ccccc1NC(=O)c1ccc(N(CC2CC2)C2CCN(CC3CC3)CC2)cc1` [Compound 28, N-(2-aminophenyl)-4-((cyclopropylmethyl)(1-(cyclopropylmethyl)piperidin-4-yl)amino)benzamide Trihydrochloride]: 2 to 3.
